Where two headings read alike, the source gives them in different places.
Experiments:
PARP1 = PARP1 (Homo sapiens (Human), UniProt P09874); assay: PARP enzyme activity assay (PARP1 chemiluminescent assay kit); assay type: biochemical; conditions: enzyme inhibitory activity, read-out: PARP-1 IC50
In short: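 Chemiluminescent kit measuring PARP1 poly(ADP-ribosylation) of plate-coated histones in presence of activated DNA; compounds in 1:3 serial dilution, top 10 μM before 10-fold buffer dilution. Enzyme (2.5 ng/μL added) reacted 60 min at room temperature, detected by streptavidin-HRP luminescence; IC50 from log-concentration vs % inhibition.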

[1] = tested on: peripheral blood reticulocytes; assay: Effect of compound on rat reticulocytes; assay type: in vivo; conditions: 4 days
Experimental: Test Objective: The effect of the compound on peripheral blood reticulocytes was evaluated to determine its impact on bone marrow hematopoietic function.
Test Compounds: Olaparib, Compound 1
Experimental Animals: Male Sprague Dawley rats were purchased from Beijing Charles River Laboratory Animal Technology Co., Ltd. Housing and Management: The experimental animals were housed in SPF-grade, temperature- and humidity-controlled clean rooms, using individually ventilated cages (IVC) with no more than 5 rats per cage. Temperature/humidity was controlled within the range of (23±3)° C./40-70%. Feed and water: SPF-grade rat feed, sterilized by cobalt-60 irradiation. Drinking water was ultrafiltered and autoclaved. Animals had free access to sterile food and water. Animal identification: ear tags.
Experimental Method: The experiment was divided into the following 5 groups: vehicle control group; Olaparib 100 mg/kg; Compound 1 0.1 mg/kg; Compound 1 0.3 mg/kg; and Compound 1 1.0 mg/kg. All treatments were administered orally by gavage once daily for 4 days. Blood samples were collected before and after treatment to measure peripheral blood reticulocyte counts.

[2] = tested on: breast cancer BR-05-0044E; assay type: in vivo, mouse; conditions: for Tumor Growth Inhibition Rate (TGI): 21 days
Experimental: Test Objective: The in vivo efficacy of the test compound was evaluated in a subcutaneous xenograft tumor model of breast cancer BR-05-0044E in NOD SCID mice.
Experimental Animals: Female NOD SCID mice, 6-8 weeks old, weighing 18-20 grams were provided by Beijing Charles River Laboratory Animal Technology Co., Ltd. The animals were acclimated in the experimental environment for 3-7 days before the experiment. The animals were housed in SPF-grade animal rooms in IVC cages (individually ventilated cages) with 4 mice per cage. All cages, bedding, and drinking water were sterilized before use. Cages, feed, and water were changed twice a week. The housing environment and lighting conditions were as follows: temperature: 20-26° C., humidity: 40-70%, light cycle: 12 hours light, 12 hours dark.
PDX Model Establishment: The human breast cancer BR-05-0044E model was initially derived from clinical samples surgically removed. After tumor tissue was expanded in mice, 20-30 mm^3 BR-05-0044E tumor tissue blocks were subcutaneously implanted into the right flank of each mouse. Tumor growth was monitored, and when the average tumor volume reached approximately 150-200 mm^3, the mice were randomly grouped for administration. Animals were weighed, and tumor volume was measured before administration. Random grouping was based on tumor volume (random block design).
Experimental Groups: The experiment was divided into the following groups: 1. Vehicle control group, 2. Compound 1 0.1 mg/kg, 3. Compound 1 0.3 mg/kg, 4. Compound 1 1.0 mg/kg. All groups were administered orally by gavage once daily. Routine checks included observing tumor growth and the impact of drug treatment on the animals' daily behavior (such as activity, food and water intake, body weight changes (measured twice a week), appearance, or other abnormalities). The animal number of deaths and side effects in each group were recorded.
Experimental Indicators: The experimental indicators were to assess whether tumor growth was inhibited, delayed, or cured. Tumor diameter was measured twice a week with calipers. Tumor volume was calculated using the formula: V=0.5a×b^2, where a and b represent the tumor's length and width, respectively.
The efficacy of the compound on inhibiting tumor was evaluated by tumor volume and tumor growth inhibition rate (TGI). TGI (%) was calculated as follows: TGI (%)={1−(Average Tumor volume at end of administration in treatment group−Average Tumor volume at start of administration in treatment group)/(Average Tumor volume at end of administration in vehicle control group−Average Tumor volume at start of administration in vehicle control group)}×100%.

Chain of PARP1 (P09874 whole entry): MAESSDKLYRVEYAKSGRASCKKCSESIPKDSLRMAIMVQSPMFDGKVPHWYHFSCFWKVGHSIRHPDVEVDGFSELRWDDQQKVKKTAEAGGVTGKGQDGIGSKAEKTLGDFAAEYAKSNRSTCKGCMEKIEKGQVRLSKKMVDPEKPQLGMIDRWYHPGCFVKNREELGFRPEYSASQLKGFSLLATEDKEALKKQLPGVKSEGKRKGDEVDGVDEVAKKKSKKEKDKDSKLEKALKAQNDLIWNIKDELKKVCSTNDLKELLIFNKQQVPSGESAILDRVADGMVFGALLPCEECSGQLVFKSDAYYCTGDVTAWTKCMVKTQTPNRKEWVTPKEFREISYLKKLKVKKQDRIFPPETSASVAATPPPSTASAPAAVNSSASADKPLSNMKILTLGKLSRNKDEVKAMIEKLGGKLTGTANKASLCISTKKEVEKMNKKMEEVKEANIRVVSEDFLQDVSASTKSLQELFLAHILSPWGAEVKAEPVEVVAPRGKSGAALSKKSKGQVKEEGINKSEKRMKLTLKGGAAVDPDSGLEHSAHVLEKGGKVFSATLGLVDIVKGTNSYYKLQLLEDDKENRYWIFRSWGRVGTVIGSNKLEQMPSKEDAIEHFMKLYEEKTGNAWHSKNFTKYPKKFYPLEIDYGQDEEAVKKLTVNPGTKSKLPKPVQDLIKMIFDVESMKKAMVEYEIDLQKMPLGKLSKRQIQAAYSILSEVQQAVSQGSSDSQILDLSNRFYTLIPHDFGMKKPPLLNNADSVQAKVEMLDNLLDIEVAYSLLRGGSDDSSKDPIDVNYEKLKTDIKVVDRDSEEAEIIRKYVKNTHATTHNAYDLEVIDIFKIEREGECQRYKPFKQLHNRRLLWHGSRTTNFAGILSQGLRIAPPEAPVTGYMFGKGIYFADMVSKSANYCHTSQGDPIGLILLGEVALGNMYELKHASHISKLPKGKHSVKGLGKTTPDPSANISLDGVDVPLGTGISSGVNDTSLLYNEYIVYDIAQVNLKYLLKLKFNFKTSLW

CNC(=O)c1ccc(N2CCN(Cc3cnc4c(C)c(C(F)(F)F)c(=O)[nH]c4c3)CC2)cn1 [Compound 1, N-methyl-5-(4-((8-methyl-6-oxo-7-(trifluoromethyl)-5,6-dihydro-1,5-naphthyridin-3-yl)methyl)piperazin-1-yl)picolinamide]
IC50 (PARP1): 2.78 nM | Reticulocyte Inhibition Rate ([1]; 0.1 mg/kg oral once daily): 12.2% | Reticulocyte Inhibition Rate ([1]; 0.3 mg/kg oral once daily): 33.8% | Reticulocyte Inhibition Rate ([1]; 1.0 mg/kg oral once daily): 41.9% | Effect on peripheral blood reticulocytes (in words) ([1]; 0.1, 0.3 and 1.0 mg/kg, p>0.05): no significant effect | Tumor Growth Inhibition Rate (TGI) ([2]; 0.1 mg/kg oral once daily): 105% | Tumor Growth Inhibition Rate (TGI) ([2]; 0.3 mg/kg oral once daily): 106% | Tumor Growth Inhibition Rate (TGI) ([2]; 1.0 mg/kg oral once daily): 107% | Body weight vs vehicle control group ([2]; mouse, in vivo): no significant difference

From patent US20250051324A1, “PARP INHIBITOR, PHARMACEUTICAL COMPOSITION COMPRISING SAME, AND USE THEREOF” (KEYTHERA (SUZHOU) BIO-PHARMACEUTICALS CO., LIMITED, priority 2021, published 2025)
